This passage reports TGI and GI50 results from PubChem BioAssay (NCI).

Values joined by “and” are separate entries in the source; they are usually repeats but may differ in a detail not shown here. Equal values may be shown once.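 Cells were grown in 96-well plates and exposed to each compound for 48 hours at five concentrations; endpoints were interpolated linearly between bracketing concentrations, or set to the highest concentration if not reached. GI50: concentration for 50% inhibition of growth. The concentration for full growth arrest is given as TGI.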 Bounds are passed on as bounds.

Holding throughout (assay): NCI tumour cell line growth inhibition, 48 h
Experiment [1] relates to UACC-62 melanoma.
The subject of experiment [2] is UO-31 renal.
The test system of experiment [3] is A549 NSCLC.
Experiment [4] relates to EKVX NSCLC.
Experiment [5] concerns NCI-H23 lung.
The subject of experiment [6] is SK-OV-3 ovarian.
The subject of experiment [7] is K-562 leukemia.
Experiment [8] relates to SW-620 colon.
Experiment [9] relates to NCI-H226 lung.
Experiment [10] relates to SF-539 CNS.

`[N-]=[N+]=NC1C2CC3CC(C2)CC1C3` (configuration not stated): the TGI in experiment [1], in experiment [2], in experiment [3], in experiment [4], in experiment [5] and in [6] was over 100 µM each time. Further, the TGI in experiment [7], in [8], in [9] and in [10] was over 100 µM in each case.
In the case of `COc1ccc(-c2cc(-c3ccc(Cl)cc3)nc(SCCCCCCC(=O)NO)n2)cc1`, the GI50 is 1.13 µM in experiment [1]; 0.758 µM in experiment [2]; 1.62 µM in experiment [3]; 2.61 µM in [4]; 1.56 µM in experiment [5]; 1.62 µM in experiment [6]. Besides, the GI50 in experiment [7] is 1.72 µM; in experiment [8] it was 1.43 µM; in experiment [9], 1.9 µM; in experiment [10], 1.63 µM. For the same compound, the TGI in experiment [1] was determined as 3.51 µM; in experiment [2], 3.05 µM; in [3], 10.7 µM; in [4] it was 22.3 µM; in experiment [5] it was 7.81 µM; in experiment [6] it was 8.54 µM. Also, the TGI amounted to 8.86 µM in experiment [7], 10.2 µM in experiment [8], 23.9 µM in [9] and 6.44 µM in [10].
With `COc1cc2ccc3c4cc(OC)c(OC(C)C)cc4c[n+](C)c3c2cc1OC`, the TGI in [1], in experiment [2], in [3], in [4], in [5] and in [6] was over 100 µM in each case. Moreover, the TGI in [7], in experiment [8], in experiment [9] and in [10] was over 100 µM each time.
Turning to `CCN(CC)/[N+]([O-])=N/OCC(C)O` (configuration not stated), the TGI in [1], in experiment [2], in [3], in experiment [4], in experiment [5] and in experiment [6] was over 100 µM each time. The TGI in experiment [7], in [8], in experiment [9] and in [10] was over 100 µM in each case.
`CC(C)=CCc1c(O)c(C(=O)CC(C)C)c(O)c2c(-c3ccccc3)cc(=O)oc12`: the GI50 in [1] was 2.2 µM; in experiment [2], 8.85 µM; in [3], 12 µM; in experiment [4] it was 11.5 µM; in experiment [5] it was 6.84 µM; in experiment [6] it was 10.3 µM. The GI50 is 3.05 µM in experiment [7], 14.5 µM in experiment [8], 16.4 µM in [9] and 5.82 µM in [10]. Also, the TGI in [1] is 13.5 µM; in experiment [2], over 50 µM; in experiment [3] it was over 50 µM; in experiment [4], over 50 µM; in experiment [5], over 50 µM; in experiment [6], 35.1 µM. Moreover, the TGI in experiment [7] was over 50 µM; in experiment [8] it was over 50 µM; in experiment [9], over 50 µM; in experiment [10] it was 22.5 µM.
`NC(N)=NC(N)=Nc1ccc(S(N)(=O)=O)cc1`: the TGI in experiment [1], in experiment [2], in experiment [3], in experiment [4], in experiment [5] and in experiment [6] was over 100 µM throughout. The TGI in [7], in experiment [8], in experiment [9] and in [10] was over 100 µM in each case.
In the case of `CNC(=S)N(C1CCCCC1)C1CCCCC1`, the TGI in experiment [1], in [2], in experiment [3], in experiment [4], in [5] and in [6] was over 100 µM in each case. Besides, the TGI in experiment [7], in [8], in [9] and in experiment [10] was over 100 µM in each case.
As to `Clc1ccc(COC(Cn2ccnc2)c2ccc(Cl)cc2Cl)c(Cl)c1` (configuration not stated), the GI50 was 2.06 µM in [1]; 2.3 µM in experiment [2]; 3.87 µM in [3]; 5.64 µM in experiment [4]; 3.03 µM in experiment [5]; 2.99 µM in experiment [6]. For the same compound, the GI50 in experiment [8] was 4.34 µM; in experiment [9] it was 1.55 µM and 4.44 µM and 9.24 µM. In addition, the TGI in [1] was 10.2 µM and 25 µM and 23.3 µM; in experiment [2], 12.4 µM and 16.5 µM and 13.6 µM; in experiment [3], 15.5 µM and 23.8 µM and 23.2 µM; in [4], 18.4 µM and 29.1 µM and 23.1 µM; in experiment [5] it was 14.6 µM and 25.8 µM and 22.4 µM; in experiment [6], 9.92 µM and 27.5 µM and 27.4 µM. Moreover, the TGI in experiment [7] is 21.2 µM and 16.4 µM; in [8], 17.5 µM and 29.9 µM and 28.8 µM; in [9], 3.31 µM and 23.2 µM and 24.2 µM; in experiment [10], 27.8 µM and 32.7 µM and 27.7 µM.
With `O=C1CCC(N2C(=O)c3cccc(NCCOCCOCCNC(=O)c4cc5c(o4)C(=O)c4ccccc4C5=O)c3C2=O)C(=O)N1` (configuration not stated), the GI50 in experiment [1] is 1.46 µM; in experiment [2], 3.51 µM; in experiment [3], 2.18 µM; in [4], 2.62 µM; in experiment [5], 0.352 µM; in [6], 3.09 µM. Also, the GI50 was 2.55 µM in experiment [7], 1.95 µM in [8], 1.7 µM in experiment [9] and 1.62 µM in experiment [10]. In addition, the TGI in experiment [1] is 2.98 µM; in experiment [2] it was 12.6 µM; in experiment [3], 4.91 µM; in experiment [4], 8.39 µM; in [5], 1.71 µM; in experiment [6], 7.78 µM. The TGI in experiment [7] turned out to be 12.7 µM; in experiment [8] it was 4.64 µM; in experiment [9], 3.8 µM; in experiment [10], 2.99 µM.
As for `CCOC(=O)C(=O)C(/C(=N/N(C)C)C(=O)Nc1ccc(C)cc1C)c1nc2ccccc2[nH]c1=O` (configuration not stated), the TGI in experiment [1], in experiment [2], in [3], in experiment [4], in [5] and in experiment [6] was over 100 µM in each case. Also, the TGI in [7], in experiment [8], in [9] and in [10] was over 100 µM throughout.
As for `Cc1cc(C)c(O)c(CNCCCNCc2cc(C)cc(C)c2O)c1`, the GI50 was 1.89 µM in experiment [1]; 2.22 µM in experiment [2]; 11 µM in experiment [3]; 5.04 µM in experiment [4]; 7.46 µM in experiment [5]; 3.62 µM in experiment [6]. For the same compound, the GI50 in experiment [7] was 2.11 µM; in experiment [8], 3.19 µM; in experiment [9], 6.46 µM; in experiment [10], 1.59 µM. Moreover, the TGI in experiment [1] was determined as 3.43 µM; in experiment [2] it was 12.1 µM; in [3], 24.6 µM; in [4], 20.2 µM; in [5], 21.2 µM; in experiment [6] it was 13.6 µM. The TGI in [7] is 4.89 µM; in [8] it was 11 µM; in experiment [9] it was 21.9 µM; in [10] it was 3.11 µM.
For the compound `COc1cc(OC)cc(C(=O)Cc2c(C(=O)c3ccccc3)c3ccccc3n2C(=O)c2ccccc2)c1`, the TGI was over 100 µM in [1]; over 100 µM in [2]; over 100 µM in experiment [3]; over 100 µM in [4]; over 100 µM in experiment [5]; 99.8 µM in experiment [6]. For the same compound, the TGI in experiment [7], in experiment [8], in experiment [9] and in experiment [10] was over 100 µM each time.
For `C[C@H](C(O)CC(=O)C(C)(C)O)[C@H]1CC[C@@]2(C)[C@@H]3CC[C@H]4C(C)(C)[C@@H](OC5OC(COC6OC(CO)C(O)C(O)C6O)C(O)C(O)C5O)CC[C@]4(C)C3=CC[C@]12C` (some centres not stated), the TGI in [1], in experiment [2], in experiment [3], in experiment [4], in [5] and in experiment [6] was over 100 µM in each case. Besides, the TGI in experiment [7], in experiment [8], in [9] and in experiment [10] was over 100 µM throughout.
With `CCC1(N)C(=O)OCc2c1cc1n(c2=O)Cc2cc3ccccc3nc2-1` (configuration not stated), the GI50 is 3.89 µM in experiment [1]; 4.43 µM in [2]; 5.05 µM in experiment [3]; 20.7 µM in [4]; 8.99 µM in experiment [6]; 5.36 µM in experiment [7]. Moreover, the results for the GI50 in experiment [8], in experiment [9] and in [10] were 12.9 µM, 2.71 µM and 2.93 µM, respectively. Moreover, the TGI in experiment [1] was 20.5 µM and 14.1 µM; in [2] it was 20.9 µM and 17.4 µM; in experiment [3] it was over 100 µM; in experiment [4], over 100 µM; in experiment [5], 38.2 µM and 54.4 µM; in experiment [6] it was 72 µM and > 100 µM. Besides, the TGI is over 100 µM in experiment [7]; over 100 µM in experiment [8]; 34.3 µM and 97.1 µM in experiment [9]; 11.8 µM and > 47.9 µM in experiment [10].
